Measured values from US8163935B2, “Fused heterocyclic compounds” (Takeda Pharmaceutical Company Limited, priority 2005, dated 2012).
Structures can show the parent of a compound that is named as a salt.

melting point [°C]	SMILES
151 to 152	CCC(CC)c1ccc(C(F)(F)F)c2nc(Nc3ccc(Cl)cc3Br)n(C)c12 [Example 159, N-(2-Bromo-4-chlorophenyl)-7-(1-ethylpropyl)-1-methyl-4-(trifluoromethyl)-1H-benzimidazol-2-amine]
87 to 88	CCCC(CCC)c1ccc(Cl)c2nc(Oc3ccc(Cl)cc3Cl)n(C)c12 [Example 127, 4-Chloro-2-(2,4-dichlorophenoxy)-1-methyl-7-(1-propylbutyl)-1H-benzimidazole]
114 to 115	CCC(CC)c1ccc(Cl)c2nc(Oc3ccc(Cl)cc3Br)n(C)c12 [Example 135, 2-(2-Bromo-4-chlorophenoxy)-4-chloro-7-(1-ethylpropyl)-1-methyl-1H-benzimidazole]
97 to 99	CCCC(CCC)c1ccc(Cl)c2nc(Oc3ccc(Br)cc3Cl)n(C)c12 [Example 128, 2-(4-Bromo-2-chlorophenoxy)-4-chloro-1-methyl-7-(1-propylbutyl)-1H-benzimidazole]
160 to 162	CCCC(CCC)c1ccc(Cl)c2nc(Oc3c(C)cc(Cl)cc3C)n(C)c12 [Example 130, 4-Chloro-2-(4-chloro-2,6-dimethylphenoxy)-1-methyl-7-(1-propylbutyl)-1H-benzimidazole]
203 to 205	CCCC(CCC)c1ccc(Cl)c2nc(Oc3c(OC)cc(C)cc3OC)n(C)c12 [Example 133, 4-Chloro-2-(2,6-dimethoxy-4-methylphenoxy)-1-methyl-7-(1-propylbutyl)-1H-benzimidazole]
115 to 119	CCc1cc(CC)n(-c2cccc3nc(Oc4c(C)cc(Cl)cc4Cl)n(C)c23)n1 [Example 162, 2-(2,4-Dichloro-6-methylphenoxy)-7-(3,5-diethyl-1H-pyrazol-1-yl)-1-methyl-1H-benzimidazole]
106 to 107	CCC(CC)c1ccc(OC)c2nc(Oc3ccc(Cl)cc3Br)n(C)c12 [Example 146, 2-(2-Bromo-4-chlorophenoxy)-7-(1-ethylpropyl)-4-methoxy-1-methyl-1H-benzimidazole]
161 to 162	CCC(CC)c1ccc(Cl)c2nc(Oc3c(OC)cc(C)cc3OC)n(C)c12 [Example 126, 4-Chloro-2-(2,6-dimethoxy-4-methylphenoxy)-7-(1-ethylpropyl)-1-methyl-1H-benzimidazole]
187 to 188	CCC(CC)c1ccc(C(F)(F)F)c2nc(Nc3c(C)cc(Cl)cc3OC)n(C)c12 [Example 158, N-(4-Chloro-2-methoxy-6-methylphenyl)-7-(1-ethylpropyl)-1-methyl-4-(trifluoromethyl)-1H-benzimidazol-2-amine]
159 to 162	CCC(CC)c1ccc(-c2ccco2)c2nc(Oc3ccc(Cl)cc3Br)n(C)c12 [Example 149, 2-(2-Bromo-4-chlorophenoxy)-7-(1-ethylpropyl)-4-(2-furyl)-1-methyl-1H-benzimidazole]
119 to 120	CCC(CC)c1ccc(C(F)(F)F)c2nc(Oc3ccc(Cl)cc3Br)n(C)c12 [Example 161, 2-(2-Bromo-4-chlorophenoxy)-7-(1-ethylpropyl)-1-methyl-4-(trifluoromethyl)-1H-benzimidazole]
149 to 151	CCC(CC)c1ccc(C(F)(F)F)c2nc(Oc3c(C)cc(Cl)cc3Cl)n(C)c12 [Example 160, 2-(2,4-Dichloro-6-methylphenoxy)-7-(1-ethylpropyl)-1-methyl-4-(trifluoromethyl)-1H-benzimidazole]
141 to 143	CCC(CC)c1ccc(Cl)c2nc(Oc3c(Cl)cc(Cl)cc3C(=O)N(C)C)n(C)c12 [Example 143, 3,5-Dichloro-2-{[4-chloro-7-(1-ethylpropyl)-1-methyl-1H-benzimidazol-2-yl]oxy}-N,N-dimethylbenzamide]
141 to 143	CCC(CC)c1ccc(CO)c2nc(Oc3c(C)cc(Cl)cc3Cl)n(C)c12 [Example 154, [2-(2,4-Dichloro-6-methylphenoxy)-7-(1-ethylpropyl)-1-methyl-1H-benzimidazol-4-yl]methanol]
148 to 150	CCCC(CCC)c1ccc(Cl)c2nc(Oc3c(C)cc(Cl)cc3Cl)n(C)c12 [Example 129, 4-Chloro-2-(2,4-dichloro-6-methylphenoxy)-1-methyl-7-(1-propylbutyl)-1H-benzimidazole]
223 to 225	CCC(CC)c1ccc(C#N)c2nc(Nc3c(C)cc(Cl)cc3OC)n(C)c12 [Example 152, 2-[(4-Chloro-2-methoxy-6-methylphenyl)amino]-7-(1-ethylpropyl)-1-methyl-1H-benzimidazole-4-carbonitrile]
136 to 137	CCC(CC)c1ccc(C#N)c2nc(Oc3ccc(Cl)cc3Br)n(C)c12 [Example 150, 2-(2-Bromo-4-chlorophenoxy)-7-(1-ethylpropyl)-1-methyl-1H-benzimidazole-4-carbonitrile]

The next lines start with the compound.

SMILES	melting point [°C]
CCCC(CCC)c1ccc(Cl)c2nc(Nc3c[nH]c(=O)cc3C)n(C)c12 [Example 116, 5-{[4-Chloro-1-methyl-7-(1-propylbutyl)-1H-benzimidazol-2-yl]amino}-4-methylpyridin-2(1H)-one]	237 to 239
CCC(CC)c1ccc(Cl)c2nc(Nc3ccc(Cl)cc3OC(F)(F)F)n(C)c12 [Example 81, 4-Chloro-N-[4-chloro-2-(trifluoromethoxy)phenyl]-7-(1-ethylpropyl)-1-methyl-1H-benzimidazol-2-amine]	126 to 128
CCCC(O)(CCC)c1cccc2nc(Nc3c(C)cc(C)cc3C)n(CCO)c12 [Example 73, 4-[1-(2-Hydroxyethyl)-2-(mesitylamino)-1H-benzimidazol-7-yl]heptan-4-ol]	267 to 270
CCC(CC)c1ccc(Cl)c2nc(Nc3ccc(C)cc3Br)n(C)c12 [Example 86, N-(2-Bromo-4-methylphenyl)-4-chloro-7-(1-ethylpropyl)-1-methyl-1H-benzimidazol-2-amine]	174 to 176
CCC(CC)c1ccc(Cl)c2nc(Nc3ccc(OC(F)(F)F)cc3Cl)n(C)c12 [Example 87, 4-Chloro-N-[2-chloro-4-(trifluoromethoxy)phenyl]-7-(1-ethylpropyl)-1-methyl-1H-benzimidazol-2-amine]	122 to 123
CCCC(CCC)c1ccc(Cl)c2nc(Nc3ccc(Cl)cc3OC(F)(F)F)n(C)c12 [Example 94, 4-Chloro-N-[4-chloro-2-(trifluoromethoxy)phenyl]-1-methyl-7-(1-propylbutyl)-1H-benzimidazol-2-amine]	130 to 132
CCC(CC)c1cc(Br)cc2nc(Nc3c(C)cc(Cl)cc3OC)n(C)c12 [Example 121, 5-Bromo-N-(4-chloro-2-methoxy-6-methylphenyl)-7-(1-ethylpropyl)-1-methyl-1H-benzimidazol-2-amine]	276 to 278
C/C=C(/CC)c1ccc(Cl)c2nc(Nc3c(C)cc(Cl)cc3OC)n(C)c12 [Example 109, 4-Chloro-N-(4-chloro-2-methoxy-6-methylphenyl)-7-[(1Z)-1-ethylprop-1-en-1-yl]-1-methyl-1H-benzimidazol-2-amine]	166 to 168
CCCC(CCC)c1ccc(Cl)c2nc(Nc3ccc(Cl)cc3Br)n(C)c12 [Example 92, N-(2-Bromo-4-chlorophenyl)-4-chloro-1-methyl-7-(1-propylbutyl)-1H-benzimidazol-2-amine]	145 to 147
CCCC(CCC)c1ccc(Cl)c2nc(Nc3ccc(Br)cc3Cl)n(C)c12 [Example 93, N-(4-Bromo-2-chlorophenyl)-4-chloro-1-methyl-7-(1-propylbutyl)-1H-benzimidazol-2-amine]	145 to 147
COc1cc(Cl)cc(C)c1Nc1nc2c(Cl)ccc(C(=C(C)C)C(C)C)c2n1C [Example 108, 4-Chloro-N-(4-chloro-2-methoxy-6-methylphenyl)-7-(1-isopropyl-2-methylprop-1-en-1-yl)-1-methyl-1H-benzimidazol-2-amine]	166 to 168
CCC(CC)c1ccc(Cl)c2nc(Nc3ccc(C(F)(F)F)cc3Cl)n(C)c12 [Example 95, 4-Chloro-N-[2-chloro-4-(trifluoromethyl)phenyl]-7-(1-ethylpropyl)-1-methyl-1H-benzimidazol-2-amine]	128 to 129
CCC(CC)c1ccc(Cl)c2nc(Oc3c(C)cc(C)cc3C)n(C)c12 [Example 99, 4-Chloro-7-(1-ethylpropyl)-2-(mesityloxy)-1-methyl-1H-benzimidazole]	137 to 139
CCC(CC)c1ccc(Cl)c2nc(Nc3cnc(N(C)C)cc3C)n(C)c12 [Example 88, N^5-[4-Chloro-7-(1-ethylpropyl)-1-methyl-1H-benzimidazol-2-yl]-N^2,N^2,4-trimethylpyridine-2,5-diamine]	224 to 226
CCC(CC)c1ccc(Cl)c2nc(Nc3c(C)cc(Cl)cc3OC)n(CC(=O)OC(C)C)c12 [Example 102, Isopropyl[4-chloro-2-[(4-chloro-2-methoxy-6-methylphenyl)amino]-7-(1-ethylpropyl)-1H-benzimidazol-1-yl]acetate]	205 to 207
CCC(CC)c1ccc(Cl)c2nc(Nc3ccc(Br)cc3Cl)n(C)c12 [Example 85, N-(4-Bromo-2-chlorophenyl)-4-chloro-7-(1-ethylpropyl)-1-methyl-1H-benzimidazol-2-amine]	127 to 129
CCCC(CCC)c1ccc(Cl)c2nc(Nc3cc(C(F)(F)F)ccc3OC)n(C)c12 [Example 112, 4-Chloro-N-[2-methoxy-5-(trifluoromethyl)phenyl]-1-methyl-7-(1-propylbutyl)-1H-benzimidazol-2-amine]	178 to 180
COc1cc(Cl)cc(C)c1Nc1nc2cccc(-c3c(OC)cccc3OC)c2n1C (as salt: trifluoroacetic acid salt) [Example 71, N-(4-chloro-2-methoxy-6-methylphenyl)-7-(2,6-dimethoxyphenyl)-1-methyl-1H-benzimidazol-2-amine Trifluoroacetic acid salt]	288 to 289
CCCC(CCC)c1ccc(Cl)c2nc(Nc3cc(C(F)(F)F)c(OC)cc3OC)n(C)c12 [Example 123, 4-Chloro-N-[2,4-dimethoxy-5-(trifluoromethyl)phenyl]-1-methyl-7-(1-propylbutyl)-1H-benzimidazol-2-amine]	196 to 198
